In patent US8829011B2 (Janssen Pharmaceutica NV, priority 2008, dated 2014):

What was measured:
[1] = molecular target: T1, human recombinant 5-HT2A receptor (Homo sapiens, UniProt P28223); assay: Affinity for 5-HT2A receptor binding sites (competitive radioligand binding, [3H]ketanserin); conditions: membranes of NIH3T3 with h5-HT2A, * = tested as hydrochloride salt
T1 construct: expressed in transfected cells; host or cells: NIH3T3
Protocol: (§1) Stock drug solutions (10 mM) were prepared in DMSO (the final assay concentration of DMSO not exceeding 0.4%). Drug dilutions were prepared in assay buffer.
(§2) Sigmoidal inhibition curves were generated and fitted by nonlinear regression analysis (GraphPad Prism).
(§3) 2. Affinity for 5HT2 Receptor Binding Sites
(§4) Receptor binding was performed using the human recombinant 5-HT2A (GB: X57830), 5-HT2B (GB: Z36748) and 5-HT2C (GB: M81778) receptors. The affinity of the compounds for the 3 different human 5-HT2 receptor subtypes was evaluated by competitive radioligand binding assays using [^3H]ketanserin (h5-HT2A) or [^3H]mesulergine (h5-HT2B and h5-HT2C). The assays were performed on membranes prepared from NIH3T3 stably transfected with h5-HT2A or CHO stably transfected with h5-HT2B and h5-HT2C.

[2] = molecular target: T2, human recombinant 5-HT2B receptor (Homo sapiens, UniProt P41595); assay: Affinity for 5-HT2B receptor binding sites (competitive radioligand binding, [3H]mesulergine); conditions: membranes of CHO with h5-HT2B, * = tested as hydrochloride salt
T2 construct: expressed in transfected cells; host or cells: CHO
Protocol: as §1, §2, §3, §4

[3] = molecular target: T3, human recombinant 5-HT2C receptor (Homo sapiens, UniProt P28335); assay: Affinity for 5-HT2C receptor binding sites (competitive radioligand binding, [3H]mesulergine); conditions: membranes of CHO with h5-HT2C, * = tested as hydrochloride salt
T3 construct: expressed in transfected cells; host or cells: CHO
T3 sequence (P28335 33-458): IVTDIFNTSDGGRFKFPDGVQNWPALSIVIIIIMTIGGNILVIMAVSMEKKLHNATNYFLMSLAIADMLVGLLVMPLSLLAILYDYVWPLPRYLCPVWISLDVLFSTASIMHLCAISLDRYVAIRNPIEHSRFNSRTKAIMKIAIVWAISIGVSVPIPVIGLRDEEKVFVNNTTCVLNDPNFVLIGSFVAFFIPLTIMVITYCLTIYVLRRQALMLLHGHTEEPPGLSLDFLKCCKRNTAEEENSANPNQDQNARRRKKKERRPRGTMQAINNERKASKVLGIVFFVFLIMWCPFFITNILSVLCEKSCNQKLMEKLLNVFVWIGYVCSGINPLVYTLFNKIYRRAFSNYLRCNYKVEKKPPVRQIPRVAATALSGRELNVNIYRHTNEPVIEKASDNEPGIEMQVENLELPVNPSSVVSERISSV
Protocol: as §1, §2, §3, §4

[4] = molecular target: T4, human recombinant 5-HT6 receptor (Homo sapiens, UniProt P50406); assay: Affinity for 5-HT6 receptor binding sites (competitive radioligand binding, [3H]LSD); conditions: membranes of HEK-293 with h5-HT6, * = tested as hydrochloride salt
T4 construct: expressed in transfected cells; host or cells: HEK-293
Protocol: as §1, §2
3. Affinity for 5-HT6 Receptor Binding Sites
Receptor binding was performed using the human recombinant 5-HT6 (GB: BC0794995) receptor. The affinity of the compounds for the human 5-HT6 receptor was evaluated by competitive radioligand binding assays using [^3H]LSD. The assays were performed on membranes prepared from HEK-293 stably transfected with h5-HT6. Non-specific binding was estimated in the presence of 1 μM clozapine.

T4 sequence (P50406 whole entry): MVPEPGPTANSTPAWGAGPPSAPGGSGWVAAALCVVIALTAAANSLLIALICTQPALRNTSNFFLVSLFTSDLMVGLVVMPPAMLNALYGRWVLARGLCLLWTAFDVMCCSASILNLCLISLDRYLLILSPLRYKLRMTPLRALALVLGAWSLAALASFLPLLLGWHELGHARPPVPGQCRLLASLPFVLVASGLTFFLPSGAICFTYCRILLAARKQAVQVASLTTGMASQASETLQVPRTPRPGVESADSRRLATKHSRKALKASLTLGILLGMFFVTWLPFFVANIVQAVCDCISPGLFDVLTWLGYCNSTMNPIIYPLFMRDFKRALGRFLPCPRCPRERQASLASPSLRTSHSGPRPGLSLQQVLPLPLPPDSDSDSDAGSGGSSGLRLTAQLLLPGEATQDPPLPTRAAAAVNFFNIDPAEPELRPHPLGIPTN
T2 sequence (P41595 whole entry): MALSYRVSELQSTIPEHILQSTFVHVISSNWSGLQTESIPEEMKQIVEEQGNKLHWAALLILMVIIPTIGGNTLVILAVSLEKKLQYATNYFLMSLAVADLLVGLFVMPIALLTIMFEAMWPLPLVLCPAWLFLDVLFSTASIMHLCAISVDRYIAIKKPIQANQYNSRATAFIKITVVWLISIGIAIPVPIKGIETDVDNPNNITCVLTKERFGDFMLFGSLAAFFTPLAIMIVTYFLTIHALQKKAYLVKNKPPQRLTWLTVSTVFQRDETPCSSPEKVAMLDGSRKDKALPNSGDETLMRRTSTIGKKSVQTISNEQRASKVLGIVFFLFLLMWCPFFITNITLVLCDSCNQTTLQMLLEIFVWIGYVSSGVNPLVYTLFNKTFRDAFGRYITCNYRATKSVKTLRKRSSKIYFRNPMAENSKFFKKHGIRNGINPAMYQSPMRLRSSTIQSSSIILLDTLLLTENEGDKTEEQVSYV
T1 sequence (P28223 whole entry): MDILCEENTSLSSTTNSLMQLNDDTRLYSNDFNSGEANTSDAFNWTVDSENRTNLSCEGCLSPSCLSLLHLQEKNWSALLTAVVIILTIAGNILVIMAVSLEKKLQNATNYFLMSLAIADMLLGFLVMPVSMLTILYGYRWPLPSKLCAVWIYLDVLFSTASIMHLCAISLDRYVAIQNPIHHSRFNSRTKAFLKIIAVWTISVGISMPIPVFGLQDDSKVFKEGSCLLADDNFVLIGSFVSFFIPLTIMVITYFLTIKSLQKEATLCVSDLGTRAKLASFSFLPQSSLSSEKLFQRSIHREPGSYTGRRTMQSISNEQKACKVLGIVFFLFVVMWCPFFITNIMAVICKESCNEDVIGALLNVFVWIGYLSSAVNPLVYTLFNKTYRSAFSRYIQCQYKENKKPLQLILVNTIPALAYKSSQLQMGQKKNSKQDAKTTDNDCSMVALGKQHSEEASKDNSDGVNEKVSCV

## Cc1ccc(-c2nc(N3CCCC3C)nc3c2CCNCC3)cc1Cl (centres unmarked) [Example 77, 4-(3-chloro-4-methylphenyl)-6,7,8,9-tetrahydro-2-(2-methyl-1-pyrrolidinyl)-5H-pyrimido[4,5-d]azepine]
[1]
  Ki: 77 nM
[2]
  Ki: 9 nM
[3]
  Ki: 33 nM
[4]
  Ki: 51 nM

## Cc1ccc(-c2nc(N3[C@H](C)CCC[C@@H]3C)nc3c2CCNCC3)cc1Cl [Example 79, 4-(3-chloro-4-methylphenyl)-2-[(2R,6S)-2,6-dimethyl-1-piperidinyl]-6,7,8,9-tetrahydro-5H-pyrimido[4,5-d]azepine]
[1]
  Ki: 39 nM
[2]
  Ki: 7 nM
[3]
  Ki: 26 nM
[4]
  Ki: 18 nM

## COc1ccc(-c2nc(N3CCCC3C)nc3c2CCNCC3)cc1 (centres unmarked) [Example 80, 6,7,8,9-tetrahydro-4-(4-methoxyphenyl)-2-(2-methyl-1-pyrrolidinyl)-5H-pyrimido[4,5-d]azepine]
[1]
  Ki: 140 nM
[2]
  Ki: 6 nM
[3]
  Ki: 42 nM
[4]
  Ki: 39 nM

## COc1ccc(-c2nc(N3[C@H](C)CCC[C@@H]3C)nc3c2CCNCC3)cc1 [Example 82, 2-[(2R,6S)-2,6-dimethyl-1-piperidinyl]-6,7,8,9-tetrahydro-4-(4-methoxyphenyl)-5H-pyrimido[4,5-d]azepine]
[1]
  Ki: 48 nM
[2]
  Ki: 3 nM
[3]
  Ki: 17 nM
[4]
  Ki: 35 nM

## C[C@@H]1CCC[C@H](C)N1c1nc2c(c(-c3ccc(F)c(F)c3)n1)CCNCC2 [Example 83, 4-(3,4-difluorophenyl)-2-[(2R,6S)-2,6-dimethyl-1-piperidinyl]-6,7,8,9-tetrahydro-5H-pyrimido[4,5-d]azepine]
[1]
  Ki: 131 nM
[2]
  Ki: 12 nM
[3]
  Ki: 39 nM
[4]
  Ki: 84 nM

## C[C@@H]1CCC[C@H](C)N1c1nc2c(c(-c3ccc(Cl)c(F)c3)n1)CCNCC2 [Example 84, 4-(4-chloro-3-fluorophenyl)-2-[(2R,6S)-2,6-dimethyl-1-piperidinyl]-6,7,8,9-tetrahydro-5H-pyrimido[4,5-d]azepine]
[1]
  Ki: 130 nM
[2]
  Ki: 2 nM
[3]
  Ki: 18 nM
[4]
  Ki: 52 nM

## Cc1ccc(-c2nc(N3[C@H](C)CCC[C@@H]3C)nc3c2CCNCC3)cc1F [Example 85, 2-[(2R,6S)-2,6-dimethyl-1-piperidinyl]-4-(3-fluoro-4-methylphenyl)-6,7,8,9-tetrahydro-5H-pyrimido[4,5-d]azepine]
[1]
  Ki: 45 nM
[2]
  Ki: 2 nM
[3]
  Ki: 15 nM
[4]
  Ki: 31 nM

## Cc1ccc(-c2nc(N3[C@H](C)CCC[C@@H]3C)nc3c2CCNCC3)cn1 [Example 86, 2-[(2R,6S)-2,6-dimethyl-1-piperidinyl]-6,7,8,9-tetrahydro-4-(6-methyl-3-pyridinyl)-5H-pyrimido[4,5-d]azepine]
[1]
  Ki: 660 nM
[2]
  Ki: 9 nM
[3]
  Ki: 240 nM
[4]
  Ki: 80 nM

## C[C@@H]1CCC[C@H](C)N1c1nc2c(c(-c3cnc4ccccc4c3)n1)CCNCC2 [Example 88, 2-[(2R,6S)-2,6-dimethyl-1-piperidinyl]-6,7,8,9-tetrahydro-4-(3-quinolinyl)-5H-pyrimido[4,5-d]azepine]
[1]
  Ki: 230 nM
[2]
  Ki: 64 nM
[3]
  Ki: 600 nM
[4]
  Ki: 12 nM

## COc1ccc(-c2nc(N3[C@H](C)CCC[C@@H]3C)nc3c2CCNCC3)cc1F [Example 89, 2-[(2R,6S)-2,6-dimethyl-1-piperidinyl]-4-(3-fluoro-4-methoxyphenyl)-6,7,8,9-tetrahydro-5H-pyrimido[4,5-d]azepine]
[1]
  Ki: 180 nM
[2]
  Ki: 3 nM
[3]
  Ki: 33 nM
[4]
  Ki: 35 nM

## CC(C)c1ccc(-c2nc(N3[C@H](C)CCC[C@@H]3C)nc3c2CCNCC3)cc1 [Example 91, 2-[(2R,6S)-2,6-dimethyl-1-piperidinyl]-6,7,8,9-tetrahydro-4-[4-(1-methylethyl)phenyl]-5H-pyrimido[4,5-d]azepine]
[1]
  Ki: 160 nM
[2]
  Ki: 6 nM
[3]
  Ki: 45 nM
[4]
  Ki: 41 nM
